{
  "source": "patent US20030013898A1",
  "about": "“Pericyte protective agent” (Toray Industries, Inc., priority 1998, published 2003)",
  "key": {"[1]": {"system": "RAGE mRNA", "test": "RAGE mRNA in pericytes by quantitative reverse transcription-polymerase chain reaction", "format": "cell-based, bovine", "settings": "1 μM BPS treatment", "procedure": "Pericytes were isolated from bovine retina and maintained in Dulbecco's modified Eagle medium containing 20% foetal calf serum. Next, the quantity of the AGE receptor RAGE mRNA present in the pericytes was analyzed by means of a quantitative reverse transcription-polymerase chain reaction method, in accordance with the technique described in Biochemical and Biophysical Research Communications, Vol. 213, 682-683, 1995."}, "[2]": {"system": "Pericytes isolated from bovine retina", "test": "Pericyte protecting action: suppression of pericyte proliferation attributable to AGE", "format": "cell-based", "settings": "FIG. 1", "procedure": "Pericytes were isolated from bovine retina and maintained in Dulbecco's modified Eagle medium containing 20% foetal calf serum. The suppression of pericyte proliferation attributable to AGE was measured by adding 0.25 mg of AGE-BSA (prepared in Reference Example 1) to a culture plate into which 3.0×10^4 cells had been plated, then culturing at 37° C. for 5 days and performing measurements using a Packard Cyto Life. Separately, Beraprost sodium (BPS) was added at a final concentration of 0.1-10 μM prior to AGE addition. As controls, measurements were carried out in the same way for the case when treatment was carried out with AGE-BSA only and for the case where no treatment was carried out. For each group, the tests were carried out 10 times respectively."}},
  "data": [
    {"molecule": "CC#CCC(C)[C@H](O)/C=C/[C@@H]1[C@H]2c3cccc(CCCC(=O)O)c3O[C@H]2C[C@H]1O", "note": "(relative stereo) [BPS, (±)-(1R*,2R*,3aS*,8bS*)-2,3,3a,8b-tetrahydro-2-hydroxy-1-[(E)-(3S*)-3-hydroxy-4-methyl-1-octen-6-ynyl]-1H-cyclopenta[b]benzofuran-5-butyric acid]", "values": [
      {"measurement": "expression of RAGE (mRNA)", "setting": "[1]", "result": "expression of RAGE was suppressed"},
      {"measurement": "improvement of AGE-induced suppression of pericyte proliferation", "setting": "[2]; BPS 0.1-10 μM added prior to 0.25 mg AGE-BSA, 3.0×10^4 cells, 37° C., 5 days", "result": "improved in a concentration-dependent manner"},
      {"measurement": "concentration at which improvement of suppression of proliferation was significant", "setting": "[2]; BPS added prior to AGE-BSA, 5 days culture", "result": 1, "unit": "µM"}
    ]}
  ]
}
